According to patent US20100104536A1, “P38 INHIBITORS” (priority 2007, published 2010):

What was measured:
[1] = after administration of 200 mg of Dexamethasone intravenously; cited from earlier work
IL-4 = assay: Cytokine suppression in splenocytes: IL-4; type: cell-based, Balb/C mice; details: 48 hrs
Method: (§1) Naïve Balb/C mice were randomized in two groups. Mice from groups 1 and 2 were sacrificed and spleens were isolated. The Splenocytes were isolated and cultured in RPMI […] 1640 media with 10% FBS and 1% antibiotics in microtitre plate. Group 1 was incubated with PBS while group 2 was incubated with 10̂8 Mw cells. After 48 hrs the cell supernatant was separated and the levels of cytokines were checked using commercial kit from R & D systems (Cat # M2000, Cat # M4000B, Cat # M1240).
(§2) Naïve Balb/C mice were sacrificed and spleens were isolated for all five groups. The splenocytes were isolated from each group and cultured in RPMI 1640 media with […] in microtitre plate. The cells were plated in micro titer plate. The wells were divided into five sets. Set one was the control, set two was stimulated with Mw, set three with 10 mM of Dexamethasone set four with 10 mcM (micro mole) of Dexamethasone and set five with 1 mcM of dexammethasone. After 48 hrs of culture the cells were harvested and the cytokine assays were performed using commercial kits from R&D systems. (Cat #M5000, Cat #M4000B, Cat #M2000, Cat #M1240)

IL-2 = assay: Cytokine suppression in splenocytes: IL-2; type: cell-based, Balb/C mice; details: 48 hrs
Method: as §1, §2

IL-12p40 = assay: Cytokine suppression in splenocytes: IL-12p40; type: cell-based, Balb/C mice; details: 48 hrs
Method: as §1, §2

IL-5 = assay: Cytokine suppression in splenocytes: IL-5; type: cell-based, Balb/C mice; details: 48 hrs
Method: as §1, §2

For `C[C@@H]1C[C@H]2[C@@H]3CCC4=CC(=O)C=C[C@]4(C)[C@@]3(F)[C@@H](O)C[C@]2(C)[C@@]1(O)C(=O)CO` [Dexamethasone], the Cmax [1] is listed as 10000 µM, the “In vitro % inhibition of IL-4” value (IL-4; Dexamethasone 1 mcM) is listed as 61.9% and the “In vitro % inhibition of IL-4” value (IL-4; Dexamethasone 10 mcM) is listed as 84.5%. For the same molecule, the inhibition at 10000 µM (IL-4; Mus musculus, Splenocyte, Dexamethasone 10 mM, read-out: In vitro % inhibition of IL-4) was 93.7%, the “In vitro % inhibition of IL-2” value (IL-2; Dexamethasone 1 mcM) was 25.6% and the “In vitro % inhibition of IL-2” value (IL-2; Dexamethasone 10 mcM) was 33.7%. The inhibition at 10000 µM (IL-2; Mus musculus, Splenocyte, Dexamethasone 10 mM, read-out: In vitro % inhibition of IL-2) was 70.6%, the “In vitro % inhibition of IL-12p40” value (IL-12p40; Dexamethasone 1 mcM) was 33.7% and the “In vitro % inhibition of IL-12p40” value (IL-12p40; Dexamethasone 10 mcM) was 47.1%. The inhibition at 10000 µM (IL-12p40; Mus musculus, Splenocyte, Dexamethasone 10 mM, read-out: In vitro % inhibition of IL-12p40) was 57.7%, the “In vitro % inhibition of IL-5” value (IL-5; Dexamethasone 1 mcM) was 43.9% and the “In vitro % inhibition of IL-5” value (IL-5; Dexamethasone 10 mcM) was 70.3%. For the same molecule, the inhibition at 10000 µM (IL-5; Mus musculus, Splenocyte, Dexamethasone 10 mM, read-out: In vitro % inhibition of IL-5) was 85.8%.
